# According to patent US8394825B2, “Compound” (Sterix Limited, priority 2007, dated 2013):
# Columns and labels:
# DU145 cells = assay: Antiproliferative assay in DU145 cells, WST-1 cell proliferation assay, 96 hours (GI50); format: cell-based; conditions: Homo sapiens, DU-145, 96 hours post-treatment
# Outline: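 DU145 cells seeded at 5000 cells/well, treated with […] compound or vehicle for 96 h. Viability read by WST-1, expressed as percent of mean control, GI50 derived; triplicate experiments.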
SMILES,melting point,GI50 (DU145 cells; triplicate),GI50 (DU145 cells; 50% growth inhibition)
"COc1cc2c(cc1O)CCN(S(=O)(=O)c1cccc(Cl)c1)C2=O [compound 203, 2-(3-Chloro-benzenesulfonyl)-6-hydroxy-7-methoxy-3,4-dihydro-2H-isoquinolin-1-one]",178 to 181 °C,–,> 100 µM
"COc1cc2c(cc1O)CCN(Cc1ccc(OC)c(OC)c1)C2 [compound 57, 6-Hydroxy-7-methoxy-2-(3,4-dimethoxybenzyl)-1,2,3,4-tetrahydroisoquinoline]",146 to 147 °C,> 100 µM,–
"COc1cc2c(cc1O)CCN(Cc1ccc(OC)c(OC)c1OC)C2 [compound 58, 6-Hydroxy-7-methoxy-2-(2,3,4-trimethoxybenzyl)-1,2,3,4-tetrahydroisoquinoline]",65 to 66 °C,> 100 µM,–
"COc1ccc(CN2CCc3cc(O)c(OC)cc3C2)cc1 [compound 39, 6-Hydroxy-7-methoxy-2-(4-methoxybenzyl)-1,2,3,4-tetrahydroisoquinoline]",162 to 163 °C,> 100 µM,–
"COc1ccc(C(=O)N2CCc3cc(OCc4ccccc4)c(OC)cc3C2=O)cc1 [compound 128, 6-Benzyloxy-7-methoxy-2-(4-methoxybenzoyl)-3,4-dihydro-2H-isoquinolin-1-one]",151 to 152 °C,> 100 µM,–
"COc1cc(CN2CCc3cc(O)c(OC)cc3C2=O)cc(OC)c1 [compound 162, 2-(3,5-dimethoxybenzyl)-6-hydroxy-7-methoxy-3,4-dihydro-2H-isoquinolin-1-one]",166 to 167 °C,> 100 µM,–
"COc1cc2c(cc1O)CCN(Cc1ccccc1OC)C2=O [compound 161, 6-Hydroxy-7-methoxy-2-(2-methoxybenzyl)-3,4-dihydro-2H-isoquinolin-1-one]",164 to 165 °C,> 100 µM,–

# More lines, now with the values ahead:
melting point,GI50 (DU145 cells; triplicate),GI50 (DU145 cells; 50% growth inhibition),SMILES
144 to 145 °C,10 to 50 µM,–,"COc1cc2c(cc1OCc1ccccc1)CCN(Cc1cc(OC)c(OC)c(OC)c1)C2 [compound 19, 6-Benzyloxy-7-methoxy-2-(3,4,5-trimethoxybenzyl)-1,2,3,4-tetrahydroisoquinoline]"
198 to 199 °C,> 100 µM,–,"COc1cc2c(cc1O)CCN(C(=O)c1ccc(C#N)cc1)C2=O [compound 145, 2-(4-Cyanobenzoyl)-6-hydroxy-7-methoxy-3,4-dihydro-2H-isoquinoline-1-one]"
118 to 119.5 °C,50 to 100 µM,–,"COc1cc2c(cc1O)CCN(Cc1cccc(Cl)c1)C2 [compound 67, 2-(3-Chlorobenzyl)-6-hydroxy-7-methoxy-1,2,3,4-tetrahydroisoquinoline]"
176 to 177 °C,50 to 100 µM,–,"COc1cc2c(cc1O)CCN(C(=O)c1ccccc1OC)C2 [compound 115, 6-Hydroxy-7-methoxy-2-(2-methoxybenzoyl)-1,2,3,4-tetrahydroisoquinoline]"
122 to 124 °C,50 to 100 µM,–,"COc1cc2c(cc1O)CCN(Cc1cccc(OC(F)(F)F)c1)C2 [compound 68, 6-Hydroxy-7-methoxy-2-(3-trifluoromethoxybenzyl)-1,2,3,4-tetrahydroisoquinoline]"
97 to 98 °C,50 to 100 µM,–,"COc1cc2c(cc1OCc1ccccc1)CCN(Cc1ccccc1)C2 [compound 2, 2-Benzyl-6-benzyloxy-7-methoxy-1,2,3,4-tetrahydroisoquinoline]"
144 to 147 °C,> 100 µM,–,"COc1cc2c(cc1OCc1ccccc1)CCN(S(=O)(=O)c1cccc(C)c1)C2 [compound 171, 6-Benzyloxy-7-methoxy-2-(toluene-3-sulfonyl)-1,2,3,4-tetrahydroisoquinoline]"
141 to 142 °C,10 to 50 µM,–,"COc1cccc(C(=O)N2CCc3cc(O)c(OC)cc3C2)c1 [compound 116, 6-Hydroxy-7-methoxy-2-(3-methoxybenzoyl)-1,2,3,4-tetrahydroisoquinoline]"
